Data taken from ChEMBL document CHEMBL1144271, “Carbonic anhydrase inhibitors: synthesis and inhibition of cytosolic/tumor-associated carbonic anhydrase isozymes I, II, and IX with bis-sulfamates” (Bioorg Med Chem Lett, 2005).

Tests used:
Carbonic anhydrase 9 = Carbonic anhydrase 9 (Homo sapiens, UniProt Q16790)
Carbonic anhydrase 1 = Carbonic anhydrase 1 (Homo sapiens, UniProt P00915)
Chain of Carbonic anhydrase 1 (P00915 whole entry): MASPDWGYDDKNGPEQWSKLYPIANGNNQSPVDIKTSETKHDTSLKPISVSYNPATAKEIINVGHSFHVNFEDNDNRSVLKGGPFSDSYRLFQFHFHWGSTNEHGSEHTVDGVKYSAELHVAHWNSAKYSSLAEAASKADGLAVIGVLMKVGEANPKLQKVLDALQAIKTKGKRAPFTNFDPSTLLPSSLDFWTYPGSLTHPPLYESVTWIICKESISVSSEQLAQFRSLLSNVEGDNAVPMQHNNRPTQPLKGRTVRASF

SMILES	Ki (Carbonic anhydrase 9)	Ki (Carbonic anhydrase 1)
NS(=O)(=O)OCCCCCCCOS(N)(=O)=O	10.1 nM	–
C[C@]12CC[C@@H]3c4ccc(OS(N)(=O)=O)cc4CC[C@H]3[C@@H]1CC[C@@H]2OS(N)(=O)=O	–	6000 nM
NS(=O)(=O)OCc1ccc(COS(N)(=O)=O)cc1	61.6 nM	> 20 nM
